Data taken from US9314485B2, “Use of PI3K M-TOR and AKT inhibitors to induce FOXP3 expression and generate regulatory T cells” (Medical Research Council, priority 2006, dated 2016).
“Also recorded” adds a separate entry of the source.

Key:
Type in all cases: cell-based, mouse
[1] = test system: S6 ribosomal protein; assay: S6 ribosomal protein phosphorylation (pS6) by intracellular staining/immunoblot; conditions: 18 h activated cells; rapamycin 25 nM, Ly294002 10 g/ml as printed; within one hour
Experimental: Mouse strains, cell sorting and culture Animal work was carried out according the Animals (Scientific Procedures) Act, UK. Lymph node (LN) cells were stained, analysed and sorted by flow cytometry as described (Cobb et al 2005 J. Exp. Med. 201: 1367-1373). Intracellular staining for Foxp3 protein was done as advised by the manufacturers (eBiosciences.com). The phosphorylation syatus of S6 ribosomal protein was determined using anti pS6 Ser235/236 (Cellsignaling cat.no. 2211, http://www.cellsignal.com) using the eBioscience Foxp3 staining kit and anti rabbit IgG-FITC or IgG-Cy5 (Jackson Immunoresearch). […] CD4 T cell CFSE profiles were recorded between 48 and 72 hours later.
To monitor the activity of the PI3K/mTOR axis in response to TCR signaling, TCR signal withdrawal and treatment with rapamycin and Ly294002, we analysed the level of phosphorylated S6 ribosomal protein (pS6), the target of p70 S6 kinase, which is directly regulated by mTOR. […]
Mice, Cell Sorting and Culture. […] Lymph node (LN) cells or thymocytes from wild type were stained, analysed and sorted by flow cytometry as described (Thompson et al., 2007 Immunity VoI 26 pp 335-344) from wild type (C57BL/6, BALB/c or C57BL/6×129) mice or from Rag1 deficient H2^b AND TCR transgenic mice. […] CD4 T cell CFSE profiles were recorded between 48 and 72 hours later.

[2] = test system: Smad2; assay: Smad2 phosphorylation western blot; conditions: serum free medium, TGFβ 1 ng/ml 90 minutes, inhibitors 90 minutes or 8 hours
Text: TGFβ is known as a powerful inducer of Foxp3 expression in conventional CD4 T cells in vitro and we therefore asked whether TGFβ mediates the induction of Foxp3 by TCR signal deprivation of newly activated T cells and PI3-K/mTOR inhibitors. Since cell culture medium supplemented with FCS contains TGFβ, we carried out the experiments described in this section in serum free lymphocyte culture medium (AIM-V, Invitrogen). […] The binding of TGFβ binding to ALK5 and TGFβ receptor II (TGFβRII) results in the phosphorylation of receptor-associated Smad2 and -3, which subsequently associate with co-Smads, translocate to the nucleus and act as transcriptional regulators. The phosphorylation of Smad proteins therefore provides a sensitive indicator of TGFβ signaling. Naive LN T cells were activated for 18 hours in serum free medium and then exposed to TGFβ (1 ng/ml) […], TCR signal deprivation, or TCR signal deprivation plus rapamycin and Ly294002. […] The blot was subsequently probed with anti Smad2/3 as a loading control.

[3] = test system: Akt; assay: pAkt (S473) immunoblot in activated CD4 T cells; conditions: 18 h activated T cells
Experimental: To monitor the activity of the PI3K/mTOR axis in newly activated CD4 T cells we analysed phosphorylation of S6 ribosomal protein (pS6), a target of the mTOR-regulated p70 S6 kinase S6K1. TCR/CD28 signaling (but not anti-CD28 alone) induced high levels of pS6 (FIG. 10a). The maintenance of mTOR activity in 18 hour activated T cells required continued TCR signaling, since S6 phosphorylation declined when TCR signals were withdrawn (FIG. 10b). […] The serine/threonine protein kinase Akt/PKB is rapidly phosphorylated in response to signaling through TCR/CD28 but, in contrast to pS6, pAkt (S473) was no longer detected 18 h after initiation of TCR/CD28 signaling (FIG. 10c). […] Increased Akt phosphorylation in response to TCR signal deprivation and rapamycin treatment is incompatible with a traditional linear signaling pathway (FIG. 10d) but consistent with a network model in which Akt activity is controlled both by PDK1 and by mTORC2. In this model, mTORC2 (mTOR/rictor/Sin 1) is under negative feedback control of mTORC1 (mTOR/raptor) via S6K1, which phosphorylates and inhibits IRS1 (insulin receptor substrate 1) and reduces Akt activation via PI3K, PDK1 and mTORC2 (FIG. 10e). Applied to our data, withdrawal of TCR signaling lowers mTORC1 and S6K1 activity (FIG. 10b), which reduces feedback inhibition of mTORC2 and explains the observed increase in pAkt (S473) (FIG. 10c). […]

Substance: TGFβ
- S6 phosphorylation (pS6) [1]: reduced pS6
- phosphorylation of Smad2 (pSmad2 S465/467) [2]: readily detectable
- phosphorylation of Smad2 (pSmad2 S465/467) ([2]; listed as TGF): strong phosphorylation of Smad2
- pAkt (S473) [3]: reappeared; also recorded: increased pAkt S473
